The values that follow come from PubChem BioAssay AID977605 (Broad Institute, 2014).

SMILES strings stand for the structures. Activity calls are given as the source filed them.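 Rule for the calls: active = fitted curve reaches 40% activation below the top valid tested dose, in every test run; inconclusive = test runs disagree on the call; inactive = the rest, including effects opposite to the expected direction.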

The first assay in a line: endothelial E-selectin upregulation by compounds – imaging, HUVEC, cherry-picked samples, dose response (AID 977605).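 Note: signal is the share of imaged cells scored positive for E-selectin.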 Particulars: HUVEC E-selectin immunostaining, at 19.5 µM (top of the series), percent of TNF-alpha response over vehicle.
In the case of `C[C@@H]1CN([C@@H](C)CO)C(=O)c2cc(NC(=O)Nc3ccc(F)cc3)ccc2O[C@@H]1CN(C)S(=O)(=O)c1cccs1`, the activation is -0.142% (inactive).
On the same count and under the same terms, the value for `CC(=O)c1ccc(N2CCN(c3ccnc4cc(Cl)ccc34)CC2)cc1` was 1.69% (inactive); that for `CC(C)NC(=O)N(C)C[C@@H]1Oc2ccc(NC(=O)Cn3cnnn3)cc2CC(=O)N([C@@H](C)CO)C[C@H]1C` was 0.965% (inactive).
On the same count and under the same terms, as for `CC(C)NC(=O)Nc1ccc2c(c1)C(=O)N([C@@H](C)CO)C[C@@H](C)[C@@H](CN(C)Cc1ccc(C(F)(F)F)cc1)O2`, the figure is 0.127% (inactive); as for `C[C@H]1CN([C@@H](C)CO)C(=O)c2cc(NS(=O)(=O)c3cn(C)cn3)ccc2O[C@@H]1CN(C)Cc1ccncc1`, -0.214% (inactive); as for `C[C@H]1CN([C@@H](C)CO)C(=O)c2cc(NC(=O)C3CCCCC3)ccc2O[C@H]1CN(C)Cc1ccc(C(=O)Nc2ccccc2N)cc1`, 4.92% (inactive).
On the same count and under the same terms, the value for `CC(C)NC(=O)Nc1ccc2c(c1)CC(=O)N([C@@H](C)CO)C[C@H](C)[C@H](CN(C)Cc1ccc(C(=O)O)cc1)O2` was 0.025% (inactive); that for `O=C(Nc1cccc(S(=O)(=O)NCc2ccco2)c1)c1cccc(Cl)c1` was 0.285% (inactive); that for `C[C@@H]1CN([C@@H](C)CO)C(=O)Cc2cc(NC(=O)Nc3ccc(F)cc3)ccc2O[C@@H]1CN(C)Cc1ccncc1` was 10.4% (inactive).
Take `CCn1c(CCC(=O)O)nc2cc(S(=O)(=O)N3CCOCC3)ccc21`: the activation is -0.184% (inactive).
Same read-out and setting: the value for `C[C@H]1CN([C@@H](C)CO)C(=O)Cc2cc(NC(=O)NC3CCCCC3)ccc2O[C@@H]1CN(C)Cc1ccc(Cl)c(Cl)c1` was 0.088% (inactive).
On to `COc1ccccc1-c1nnc(NC(=O)CSc2nncn2C)s1`, for which the activation was -0.056% (inactive).
With `COc1ccc(CN(C)C[C@@H]2Oc3ccc(N(C)C)cc3CC(=O)N([C@@H](C)CO)C[C@@H]2C)cc1`, the activation was -0.012% (inactive).
Still for that read-out and setting: the value for `C[C@H]1CN([C@@H](C)CO)C(=O)c2cc(C#Cc3cccc(F)c3)cnc2O[C@@H]1CN(C)C(=O)C1CC1` was -0.134% (inactive); that for `O=C(C1CCCN(c2nnc(-n3cccc3)s2)C1)N1CCN(c2ccccc2)CC1` (stereo unspecified) was 0.14% (inactive); that for `C[C@@H]1CN([C@@H](C)CO)C(=O)c2cccc(NC(=O)Nc3ccc4c(c3)OCO4)c2O[C@H]1CN(C)S(=O)(=O)c1ccc(F)cc1` was -0.076% (inactive).
Turning to `C[C@H](CO)N1C[C@H](C)[C@H](CN(C)Cc2ccc(Cl)c(Cl)c2)Oc2ccc(NC(=O)Nc3ccc4c(c3)OCO4)cc2CC1=O`, the activation was -0.197% (inactive).
Still for that read-out and setting: as for `COc1ccc(CN(C)C[C@@H]2Oc3c(NC(=O)Nc4ccc(F)cc4)cccc3C(=O)N([C@@H](C)CO)C[C@H]2C)cc1`, the figure is 8.09% (inactive).
Same read-out and setting: the value for `COc1ccc(S(=O)(=O)N(C)C[C@H]2Oc3ccc(NC(=O)Nc4c(C)noc4C)cc3C(=O)N([C@H](C)CO)C[C@H]2C)cc1` was 0.58% (inactive); that for `C[C@H](CO)N1C[C@H](C)[C@H](CN(C)Cc2ccc(C(F)(F)F)cc2)Oc2ccc(NC(=O)Cc3cn(C)c4ccccc34)cc2CC1=O` was 0.156% (inactive).
On to `COc1ccc(S(=O)(=O)Nc2ccc3c(c2)CC(=O)N([C@H](C)CO)C[C@@H](C)[C@H](CN(C)C(=O)NC2CCCCC2)O3)cc1`, for which the activation is -0.114% (inactive).
The same measure, in the same setting: the value for `Cc1noc(C)c1NC(=O)Nc1ccc2c(c1)CC(=O)N([C@@H](C)CO)C[C@H](C)[C@@H](CN(C)S(=O)(=O)c1ccccc1)O2` was -0.1% (inactive).
`C[C@H]1CN([C@@H](C)CO)C(=O)c2cccc(NS(C)(=O)=O)c2O[C@@H]1CN(C)Cc1ccncc1`: the activation is -0.178% (inactive).
On the same count and under the same terms, the value for `C[C@@H]1CN([C@@H](C)CO)C(=O)c2cccc(NC(=O)Nc3ccccc3)c2O[C@H]1CN(C)S(=O)(=O)c1ccccc1` was 0.91% (inactive); that for `C[C@H](CO)N1C[C@H](C)[C@H](CN(C)Cc2ccc(Oc3ccccc3)cc2)Oc2ccc(NC(=O)CCCCCC(=O)Nc3ccccc3N)cc2CC1=O` was 0.312% (inactive).
Same read-out and setting: the value for `COc1ccc(CN(C)C[C@@H]2Oc3ccc(NC(=O)Nc4ccc(F)cc4)cc3CC(=O)N([C@H](C)CO)C[C@H]2C)cc1` was 0.445% (inactive); that for `C[C@@H]1CN([C@H](C)CO)C(=O)c2cc(NS(=O)(=O)c3ccc(F)cc3)ccc2O[C@@H](C)CCCCO[C@@H]1CN(C)S(C)(=O)=O` was 3.44% (inactive).
Still for that read-out and setting: as for `CC(C)(C)c1cc(CCC(=O)NCc2ccccn2)cc(C(C)(C)C)c1O`, the figure is -0.086% (inactive); as for `O=C(O)CC1C(=O)NCCN1Cc1cccs1` (stereo unspecified), -0.112% (inactive); as for `COc1ccc(S(=O)(=O)N(C)C[C@@H]2Oc3ccc(NS(=O)(=O)c4c(C)noc4C)cc3C(=O)N([C@@H](C)CO)C[C@H]2C)cc1`, -0.096% (inactive).
For the compound `O=C1Nc2ccccc2C1Cc1ccccn1` (stereo unspecified), the activation is -0.092% (inactive).
Regarding `CCn1nc(CC(=O)O)c2ccccc2c1=O`, the activation was 5.69% (inactive).
Still for that read-out and setting: as for `Cc1ccc(-n2ncc3c(=O)[nH]c(SC(C)C)nc32)cc1`, the figure is 0.023% (inactive).
The same measure, in the same setting: the value for `C[C@@H]1CN([C@H](C)CO)C(=O)c2cc(NC(=O)Cn3cnnn3)ccc2O[C@@H]1CN(C)Cc1ccc(Oc2ccccc2)cc1` was -0.117% (inactive).
For the compound `CC(=O)NC1C(=O)N(CCN2CCOCC2)c2ccc(F)cc21` (stereo unspecified), the activation is -0.179% (inactive).
The same measure, in the same setting: the value for `C[C@H](CO)N1C[C@H](C)[C@H](CN(C)Cc2ccc(Oc3ccccc3)cc2)Oc2c(NS(C)(=O)=O)cccc2C1=O` was 3.2% (inactive); that for `COc1ccc(N2C(=O)c3ccccc3C(C)(C)C2=O)cc1` was -0.152% (inactive); that for `COC(=O)c1ccc(CNC(=O)c2ccc(OC)c(S(=O)(=O)NC3CCCC3)c2)cc1` was -0.105% (inactive).
Take `COc1cc(CC2C(=O)Nc3ccccc32)cc(C)c1O` (stereo unspecified): the activation is 36.1% (inactive).
Still for that read-out and setting: the value for `Cc1ccc(NCc2n[nH]c(=S)n2-c2ccccc2)cc1` was 1.12% (inactive); that for `COc1ccc(NC(=O)N(C)C[C@@H]2Oc3ccc(NC(=O)c4ccncc4)cc3CC(=O)N([C@H](C)CO)C[C@@H]2C)cc1` was -0.135% (inactive).
The same measure, in the same setting: the value for `C[C@H]1CN([C@@H](C)CO)C(=O)c2cc(NC(=O)CCN3CCOCC3)ccc2O[C@@H]1CN(C)Cc1ccncc1` was 0.277% (inactive).
For the compound `COc1ccc(S(=O)(=O)N(C)C[C@@H]2Oc3ccc(NC(=O)c4ccncc4)cc3C(=O)N([C@@H](C)CO)C[C@@H]2C)cc1`, the activation was -0.183% (inactive).
On the same count and under the same terms, the value for `C[C@H](CO)N1C[C@H](C)[C@H](CN(C)CC2CC2)Oc2ccc(NC(=O)Cc3ccccc3)cc2CC1=O` was 0.216% (inactive); that for `CCOc1ccc(S(=O)(=O)N2CCC(C(=O)NCc3cccnc3)CC2)cc1` was -0.239% (inactive); that for `CO[C@@H]1CN(C)C(=O)c2ccc(NC(=O)c3nc4ccccc4s3)cc2OC[C@@H](C)N(Cc2cncnc2)C[C@@H]1C` was -0.082% (inactive).
The same measure, in the same setting: the value for `Cc1ccc(S(=O)(=O)NNC(=O)c2cccc(O)c2)cc1` was -0.007% (inactive).
Same read-out and setting: the value for `CC(C)CC#Cc1ccc2c(c1)O[C@H](CN(C)Cc1ccncc1)[C@H](C)CN([C@@H](C)CO)S2(=O)=O` was -0.038% (inactive); that for `C[C@@H]1CN([C@@H](C)CO)S(=O)(=O)c2ccc(C#CC3CC3)cc2O[C@@H]1CN(C)Cc1cccnc1` was -0.068% (inactive); that for `CCOC(=O)c1cccc(NC(=O)Nc2ccc3c(c2)C(=O)OC3)c1` was 0.013% (inactive).
As for `O=C(CCC(=O)N1CCOCC1)Nc1ccc(Cl)c(Cl)c1`, the activation is 0.295% (inactive).
On the same count and under the same terms, the value for `Cc1cc(NC(=O)c2ccccc2F)n(C(C)(C)C)n1` was 0.21% (inactive).
Still for that read-out and setting: as for `C[C@H]1CN([C@@H](C)CO)C(=O)c2cccc(NC(=O)c3cnccn3)c2O[C@H]1CN(C)Cc1ccc2c(c1)OCO2`, the figure is -0.117% (inactive).
The same measure, in the same setting: as for `C[C@@H]1CN([C@H](C)CO)C(=O)Cc2cc(NS(C)(=O)=O)ccc2O[C@H]1CN(C)S(=O)(=O)c1cn(C)cn1`, the figure is -0.104% (inactive); as for `Cc1cccc(CC(=O)c2c[nH]c3ccccc23)c1`, -0.07% (inactive).
Regarding `C[C@@H]1CN([C@@H](C)CO)C(=O)c2cccc(NC(=O)C3CCOCC3)c2O[C@@H]1CN(C)Cc1ccncc1`, the activation was 0.913% (inactive).
The same measure, in the same setting: as for `OC(Cc1ccccc1Br)c1ncc(-c2ccc(Cl)cc2)[nH]1` (stereo unspecified), the figure is 1.34% (inactive); as for `Cc1[nH]c(=O)c(C#N)cc1-c1ccncc1`, -0.055% (inactive); as for `C[C@H](CO)N1C[C@H](C)[C@H](CN(C)S(=O)(=O)c2ccc(Cl)cc2)Oc2c(NC(=O)C3CCCCC3)cccc2C1=O`, 0.576% (inactive).
The same measure, in the same setting: as for `COc1ccc(S(=O)(=O)N(C)C[C@H]2Oc3ccc(NC(=O)CCCN(C)C)cc3C(=O)N([C@@H](C)CO)C[C@H]2C)cc1`, the figure is 0.162% (inactive); as for `COc1ccccc1CNC(=O)[C@@H]1CCCN1S(=O)(=O)c1ccc(Cl)cc1`, -0.15% (inactive).

Staying with this assay, now noted: HUVEC E-selectin immunostaining, at 21 µM (top of the series), percent of TNF-alpha response over vehicle.
As to `C[C@H]1CN([C@@H](C)CO)C(=O)Cc2cc(NS(C)(=O)=O)ccc2O[C@@H]1CN(C)Cc1ccncc1`, the activation is 0.217% (inactive).
Regarding `C[C@H](CO)N1C[C@H](C)[C@@H](CN(C)C)Oc2c(NC(=O)CCCCCC(=O)Nc3ccccc3N)cccc2C1=O`, the activation was -0.097% (inactive).
Still for that read-out and setting: as for `C[C@@H]1CN([C@H](C)CO)S(=O)(=O)c2ccc(-c3ccncc3)cc2O[C@H]1CN(C)Cc1ccc(Oc2ccccc2)cc1`, the figure is 23.2% (inactive).
In the case of `C[C@@H]1CN([C@H](C)CO)C(=O)c2cccc(NS(C)(=O)=O)c2O[C@@H]1CN(C)Cc1ccc(Oc2ccccc2)cc1`, the activation was -0.185% (inactive).
As for `C[C@H](CO)N1C[C@H](C)[C@@H](CN(C)S(=O)(=O)c2cccs2)Oc2ccc(NC(=O)CCN3CCOCC3)cc2C1=O`, the activation is -0.167% (inactive).
